Read-outs that look alike come from different tables or passages of the source. Where only a bound is given, the exact number is not on record here.

Results on one compound are retold here after patent US20250340538A1, “IMIDAZOLONE DERIVATIVES AS INHIBITORS OF PROTEIN KINASES IN PARTICULAR DYRK1A, CLK1 AND/OR CLK4” (PERHA PHARMACEUTICALS, priority 2021, published 2025).

What all share (format): biochemical
In test [1] the target is T1, CLK4 (Homo sapiens, UniProt Q9HAZ1).
T1 construct: GST-fusion or His-tag (not specified per kinase); purchased ProQinase GmbH; host or cells: Sf9 insect cells or E. coli (not specified per kinase)
Nature of the test: Radiometric protein kinase assay (33PanQinase Activity Assay), CLK4. The following applies: read-out: IC50 on CLK4 (most potent CLK4 inhibitors). The procedure:
(§1) Assays were performed by ProQinase GmbH (Engesserstr. 4, D-79108 Freiburg, Germany. www.proqinase.com). The IC50 profile of all compounds was determined using 12 protein kinases (CDK2/cyclin E, CK1ε, CLK1, 2, 3, 4, DYRK1A, 1B, 2, 3, 4, GSK3β).
(§2) The compounds were provided as […] in 100% DMSO. Prior to testing, the 1 μM stock solutions were subjected to a serial, semi-logarithmic dilution using 100% DMSO as a solvent. […] In the process, 90 μl H2O were added to each well of each compound dilution plate. To minimize potential precipitation, the H2O was added to each plate only a few minutes before the transfer of the compound solutions into the assay plates. The plate was shaken thoroughly, resulting in a compound dilution plate/10% DMSO.
(§3) For the assays (see below), 5 μL solution from each well of the compound dilution plates/10% DMSO were transferred into the assay plates. The final volume of the assay was 50 μL. All compounds were tested at 10 final assay concentrations in the range from 10 μM to 30 nM. The final DMSO concentration in the reaction cocktails was 1% in all cases.
(§4) All protein kinases provided by ProQinase were expressed in Sf9 insect cells or in E. coli as recombinant GST-fusion proteins or His-tagged proteins, either as full-length or enzymatically active fragments. All kinases were produced from human cDNAs and purified by either GSH-affinity chromatography or immobilized metal. Affinity tags were removed from a number of kinases during purification. The purity of the protein kinases was examined by SDS-PAGE/Coomassie staining, the identity was checked by mass spectroscopy.
(§5) A radiometric protein kinase assay (33PanQinase® Activity Assay) was used for measuring the kinase activity of the 12 protein kinases. All kinase assays were performed in 96-well FlashPlates™ from PerkinElmer (Boston, MA, USA) in a 50 μL reaction volume. The reaction cocktail was pipetted in four steps in the following order: • 25 μL of assay buffer (standard buffer/[γ-^33P]-ATP), • 10 μL of ATP solution (in H2O), • 5 μL of test compound (in 10% DMSO), • 10 μL of enzyme/substrate mixture.
(§6) The reaction cocktails were incubated at 30° C. for 60 minutes. The reaction was stopped with 50 μL of 2% (v/v) H3PO4, plates were aspirated and washed two times with 200 μL 0.9% (w/v) NaCl. Incorporation of ^33Pi was determined with a microplate scintillation counter (Microbeta, Wallac). The IC50 values for all compounds were calculated from the dose response curves
(§7) As a parameter for assay quality, the Z′-factor (Zhang et al., J. Biomol. Screen. 2: 67-73, 1999) for the low and high controls of each assay plate (n=8) was used. ProQinase's criterion for repetition of an assay plate is a Z′-factor below 0.4 (Iversen et al., J. Biomol. Screen. 3: 247-252, 2006).

Test [2] concerns the target T2, DYRK2 (Homo sapiens, UniProt Q92630).
T2 construct: GST-fusion or His-tag (not specified per kinase); purchased ProQinase GmbH; host or cells: Sf9 insect cells or E. coli (not specified per kinase)
T2 sequence (Q92630 1-601): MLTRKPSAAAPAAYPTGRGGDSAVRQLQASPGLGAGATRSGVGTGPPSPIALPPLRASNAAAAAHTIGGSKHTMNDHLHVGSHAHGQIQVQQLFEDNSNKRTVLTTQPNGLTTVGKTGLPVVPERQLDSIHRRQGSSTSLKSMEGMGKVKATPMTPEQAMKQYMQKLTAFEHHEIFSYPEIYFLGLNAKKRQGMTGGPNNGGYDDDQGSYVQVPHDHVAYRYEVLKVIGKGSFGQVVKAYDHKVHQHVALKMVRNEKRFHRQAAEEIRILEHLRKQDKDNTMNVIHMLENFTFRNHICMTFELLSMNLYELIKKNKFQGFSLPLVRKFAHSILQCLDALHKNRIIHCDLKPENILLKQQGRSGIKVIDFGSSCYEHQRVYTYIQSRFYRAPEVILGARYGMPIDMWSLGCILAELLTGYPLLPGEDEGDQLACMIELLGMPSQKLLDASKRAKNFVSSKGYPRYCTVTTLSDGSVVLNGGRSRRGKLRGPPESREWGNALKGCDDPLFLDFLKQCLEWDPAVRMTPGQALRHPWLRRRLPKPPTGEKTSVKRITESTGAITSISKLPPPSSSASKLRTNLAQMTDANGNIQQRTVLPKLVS
Nature of the test: Radiometric protein kinase assay (33PanQinase Activity Assay), DYRK2. To be noted: read-out: IC50 on DYRK2 (most potent DYRK2 inhibitors). As for the experimental part: as §1, §2, §3, §4, §5, §6, §7

Test [3] addresses T3, DYRK4 (Homo sapiens, UniProt Q9NR20).
T3 construct: GST-fusion or His-tag (not specified per kinase); purchased ProQinase GmbH; host or cells: Sf9 insect cells or E. coli (not specified per kinase)
T3 sequence (Q9NR20 1-520): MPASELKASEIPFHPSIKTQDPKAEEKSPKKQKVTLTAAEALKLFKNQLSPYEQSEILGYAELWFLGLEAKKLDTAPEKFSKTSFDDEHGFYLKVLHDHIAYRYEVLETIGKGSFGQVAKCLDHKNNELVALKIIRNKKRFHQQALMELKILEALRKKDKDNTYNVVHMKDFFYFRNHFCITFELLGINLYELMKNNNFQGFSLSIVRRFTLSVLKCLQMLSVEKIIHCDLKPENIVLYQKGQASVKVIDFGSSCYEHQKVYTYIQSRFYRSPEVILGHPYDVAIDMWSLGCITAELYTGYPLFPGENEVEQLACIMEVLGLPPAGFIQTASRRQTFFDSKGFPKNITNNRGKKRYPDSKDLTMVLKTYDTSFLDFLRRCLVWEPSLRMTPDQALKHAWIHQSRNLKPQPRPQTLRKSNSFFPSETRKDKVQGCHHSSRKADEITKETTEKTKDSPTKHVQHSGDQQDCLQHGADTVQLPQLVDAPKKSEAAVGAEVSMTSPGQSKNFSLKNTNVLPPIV
Nature of the test: Radiometric protein kinase assay (33PanQinase Activity Assay), DYRK4. To be noted: read-out: IC50 on DYRK4 (most potent DYRK4 inhibitors). As for the experimental part: as §1, §2
For the assays (see below), 5 μL solution from each well of the compound dilution plates/10% DMSO were transferred into the assay plates. The final volume of the assay was 50 μL. All compounds were tested at 10 final assay concentrations in the range from 10 μM to 30 nM. The final DMSO concentration in the reaction cocktails was 1% in all cases. […]
The reaction cocktails were incubated at 30° C. for 60 minutes. […] Incorporation of ^33Pi was determined with a microplate scintillation counter (Microbeta, Wallac). The IC50 values for all compounds were calculated from the dose response curves […]

Test [4] concerns the target T4, DYRK1A (Homo sapiens, UniProt Q13627).
T4 construct: GST-fusion or His-tag (not specified per kinase); purchased ProQinase GmbH; host or cells: Sf9 insect cells or E. coli (not specified per kinase)
Nature of the test: Radiometric protein kinase assay (33PanQinase Activity Assay), DYRK1A. In short, it runs like this:
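Recombinant human kinase, expressed in Sf9 or E. coli, in a radiometric [γ-33P]-ATP assay at 30 °C for 60 min. Compounds tested at 10 concentrations from 10 μM to 30 nM, 1% DMSO final. 33Pi incorporation measured by scintillation counting; IC50 from dose-response curves.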

In test [5] the target is T5, CLK1 (Homo sapiens, UniProt P49759).
T5 construct: GST-fusion or His-tag (not specified per kinase); purchased ProQinase GmbH; host or cells: Sf9 insect cells or E. coli (not specified per kinase)
In words: Radiometric protein kinase assay (33PanQinase Activity Assay), CLK1. To be noted: read-out: Potency Class CLK1. In short, it runs like this:
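Human kinase (Sf9- or E. coli-expressed, tagged, purified) + substrate + [γ-33P]-ATP; cpd 10 μM→30 nM, 10 pts, 1% DMSO; 30 °C, 60 min; H3PO4 stop; scintillation count; IC50 from curve.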

T5 sequence (P49759 whole entry, the tested form may be a part): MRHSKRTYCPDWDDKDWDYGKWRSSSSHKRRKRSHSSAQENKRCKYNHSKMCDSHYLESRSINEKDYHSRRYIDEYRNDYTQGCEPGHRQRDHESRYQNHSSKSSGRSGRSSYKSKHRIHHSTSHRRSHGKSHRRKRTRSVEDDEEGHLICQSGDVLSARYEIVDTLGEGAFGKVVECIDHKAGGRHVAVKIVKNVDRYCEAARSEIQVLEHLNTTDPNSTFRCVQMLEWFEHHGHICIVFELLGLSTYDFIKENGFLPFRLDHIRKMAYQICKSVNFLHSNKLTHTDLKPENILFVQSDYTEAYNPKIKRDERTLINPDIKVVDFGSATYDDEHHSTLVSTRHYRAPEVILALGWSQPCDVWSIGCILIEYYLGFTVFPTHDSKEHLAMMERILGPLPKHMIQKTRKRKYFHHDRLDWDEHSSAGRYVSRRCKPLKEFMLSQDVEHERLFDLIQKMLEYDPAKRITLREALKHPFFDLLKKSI
T1 sequence (Q9HAZ1 whole entry, the tested form may be a part): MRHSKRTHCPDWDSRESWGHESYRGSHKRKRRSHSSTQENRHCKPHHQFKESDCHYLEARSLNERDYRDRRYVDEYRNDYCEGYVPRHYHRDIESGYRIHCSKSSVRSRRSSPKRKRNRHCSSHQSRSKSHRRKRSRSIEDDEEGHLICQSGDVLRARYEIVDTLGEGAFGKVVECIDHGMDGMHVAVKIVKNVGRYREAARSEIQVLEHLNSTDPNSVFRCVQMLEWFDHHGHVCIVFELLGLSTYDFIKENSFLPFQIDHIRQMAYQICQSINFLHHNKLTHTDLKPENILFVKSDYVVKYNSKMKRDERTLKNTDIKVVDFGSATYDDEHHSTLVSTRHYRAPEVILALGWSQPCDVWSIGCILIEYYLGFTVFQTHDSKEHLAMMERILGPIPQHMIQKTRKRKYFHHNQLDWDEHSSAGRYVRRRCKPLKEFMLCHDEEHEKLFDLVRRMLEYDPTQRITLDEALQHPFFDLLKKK

Regarding `O=C1NC(NC23CC4CC(CC2C4)C3)=N/C1=C\c1ccc2nccnc2c1` [Compound 16, (4Z)-2-(3-noradamantylamino)-4-(quinoxalin-6-ylmethylene)-1H-imidazol-5-one], the IC50 was ≤ 10 nM in test [1]; ≤ 250 nM in test [2]; ≤ 300 nM in test [3]; 5 to 10 nM in test [4] (IC50 class A to E, read-out: Potency Class DYRK1A); 5 to 10 nM in test [4] (class by IC50 on DYRK1A, from dose-response curves, read-out: Potency Class DYRK1A); ≤ 10 nM in test [4] (read-out: IC50 on DYRK1A (most potent DYRK1A inhibitors)). The IC50 is > 50 nM in test [5] (IC50 class A to E) and > 50 nM in test [5] (class by IC50 on CLK1, from dose-response curves). Also, the “Selectivity Class DYRK1A vs. CLK1” value in test [4] (ratio of IC50 on CLK1 over IC50 on DYRK1A) was “I (ratio of IC50 on CLK1 or DYRK1B over IC50 on DYRK1A ≥10 fold (most DYRK1A-selective compounds))”. Further, the “Selectivity Class DYRK1A vs. DYRK1B” value in test [4] (ratio of IC50 on DYRK1B over IC50 on DYRK1A) was “II (ratio between 2 and 10 fold)”.
